# Experimental data: patent publication US8067422B2, “Crystal form of phenylamino pyrimidine derivatives” (Natco Pharma Limited, priority 2008, dated 2011)
# Legend:
# [1] = system: Baf3 murine leukemia cells (T315I); experiment: Blast cell count in nude mice implanted with Baf3 T315I cells; assay type: in vivo; conditions: Baf3T315I; Imatinib 10 mg/kg, AN019 20 mg/kg, AN024 20 mg/kg, oral gavage or ip; day 42
# Description: (§1) Blood smears were obtained via the tail vein or via the femoral vein every 6th day and blast cells counted and graphically represented.
# (§2) Abdominal swelling and decrease in activity was monitored daily, blood smear taken via the tail vein or the femoral vein every 6th day and H&E stained as per standard protocols. 42 days after implantation, mice were sacrificed and spleens harvested.
# (§3) Nude mice were intraperitoneally implanted with Baf3 mutant cells (wt, T315I, M351T or E255K). […] Blood was drawn from the femoral vein or tail vein every 6th day and blast cell count determined and graphically represented.
# [2] = system: Baf3 murine leukemia cells (M351T); experiment: Blast cell count in nude mice implanted with Baf3 M351T cells; assay type: in vivo; conditions: Baf3M351T; Imatinib 10 mg/kg, AN019 20 mg/kg, AN024 20 mg/kg, oral gavage or ip; day 42
# Description: as §1, §2, §3
# [3] = system: Baf3 murine leukemia cells (E255K); experiment: Blast cell count in nude mice implanted with Baf3 E255K cells; assay type: in vivo; conditions: Baf3 E225K (E255K); Imatinib 10 mg/kg, AN019 20 mg/kg, AN024 20 mg/kg, oral gavage or ip; day 42
# Description: as §1, §2, §3
# ZR71 breast cancer cells [4] = experiment: Matrigel invasion assay (modified Boyden chamber), ZR-71; assay type: cell-based; conditions: ZR-71
# Method: (§4) The in vitro invasiveness of 4910, 5310 and U87 glioma cells and MDAMB231 and ZR71 breast cancer cells in the presence of specified concentrations of compounds were assessed using a modified Boyden chamber assay. Cells were treated with these compounds for 48 h. 1×10^6 cells were suspended in 600 μl of serum-free medium supplemented with 0.2% BSA and placed in the upper compartment of the transwell chambers (Corning Costar Fischer Scientific Cat #07-200-158, Pittsburgh Pa.) coated with Matrigel (0.7 mg/ml). The lower compartment of the chamber was filled with 200 μl of serum medium and the cells were allowed to migrate for 24 h. After incubation, the cells were fixed and stained with Hema-3 and quantified as previously described (Mohanam et al. 1993). The migrated cells were imaged microscopically to determine the reduction in invasiveness induced by the compounds of this invention.
# [5] = system: MDAMB231 breast cancer cells; experiment: Matrigel invasion assay (modified Boyden chamber), MDA-MB-231; assay type: cell-based; conditions: MDA-MB-231
# Method: as §4
# 4910 glioma cells [6] = experiment: Matrigel invasion assay (modified Boyden chamber), 4910; assay type: cell-based, human; conditions: 4910
# Method: as §4
# 5310 glioma cells [7] = experiment: Matrigel invasion assay (modified Boyden chamber), 5310; assay type: cell-based; conditions: 5310
# Method: as §4
# U87 glioma cells [8] = experiment: Matrigel invasion assay (modified Boyden chamber), U87; assay type: cell-based; conditions: U87
# Method: as §4
# ZR71 breast cancer cells [9] = experiment: In vitro angiogenic assay, ZR-71 conditioned media on human dermal endothelial cells; assay type: cell-based; conditions: ZR-71 cells; radiation not distinguished
# Method: (§5) The in vitro angiogenesis of 4910, 5310 and U87 glioma cells and MDAMB231 and ZR71 breast cancer cells in the presence of specified concentrations of compounds were determined as follows, cells (2×10^4/well) were seeded in 8-well chamber slides and were treated with various concentrations of test compounds. After a 24 h incubation period, the conditioned media was removed and added to a 4×10^4 human dermal endothelial cell (monolayer in 8-well chamber slides) and the human dermal endothelial cells were allowed to grow for 72 h. Cells were then fixed in 3.7% formaldehyde and stained with H&E and photographed.
# [10] = system: MDAMB231 breast cancer cells; experiment: In vitro angiogenic assay, MDA-MB-231 conditioned media on human dermal endothelial cells; assay type: cell-based; conditions: MDA-MB-231 cells
# Method: as §5
# 4910 glioma cells [11] = experiment: In vitro angiogenic assay, 4910 conditioned media on human dermal endothelial cells; assay type: cell-based; conditions: 4910 cells
# Method: as §5
# 5310 glioma cells [12] = experiment: In vitro angiogenic assay, 5310 conditioned media on human dermal endothelial cells; assay type: cell-based; conditions: 5310 cells
# Method: as §5
# U87 glioma cells [13] = experiment: In vitro angiogenic assay, U87 conditioned media on human dermal endothelial cells; assay type: cell-based
# Method: as §5
# [14] = system: AKT, ERK and Pi3k in U87 glioma cells; experiment: Western blot analysis, U87; assay type: cell-based
# Method: (§6) Western blot analysis of 4910, 5310 and U87 glioma cells and MDAMB231 and ZR71 breast cancer cells in the presence of specified concentrations of compounds were assessed as per standard protocols. Cells were treated with AN019, AN024 or Temozolomide at the specified concentrations. 24 h after treatment, cells were collected and cell lysates extracted. Equal quantities of proteins were fractionated by SDS-PAGE. The fractionated proteins were blotted on to nylon membranes and immunoprobed for AKT, ERK and Pi3k. Breast cancer cell protein isolates were additionally immunoprobed for EGFR, ErbB1, ErbB2 and ErbB3.
# [15] = system: AKT, ERK and Pi3k in 4910 glioma cells; experiment: Western blot analysis, 4910; assay type: cell-based, human
# Method: as §6
# [16] = system: AKT, ERK and Pi3k in ZR71 breast cancer cells; experiment: Western blot analysis, ZR71; assay type: cell-based
# Method: as §6
# [17] = system: K562 luciferase expressing cells; experiment: Leukemic survival study in nude mice implanted with K562 luciferase expressing cells; assay type: in vivo
# Description: K562 luciferase expressing cells were implanted intraperitoneally into nude mice; the mice were scanned using the xenogeny IVIS image station after ip injections of luciferin does determine implantations. Drug treatment was started as in previous studies day 15 after implantation. The animals were given treatment till day 42, after which drug treatment was stopped and survival of the animals determined as per the animal care regulations. […] Drug treatment was withdrawn on day 42 post implantation and survival of animals determined.
# [18] = system: 4910 human glioma xenograft cells; experiment: Glioma radiation study, nude mice intracranially implanted with 4910 cells; assay type: in vivo
# Method: Nude mice were intracranially implanted with 4910 human glioma xenograft cells (1×10^6 cells). Ten days after implantation mice were treated with AN019, AN024 or temozolomide with or without radiation (5 Gy/week). The experiment was terminated at day 40 post implantation.
# [19] = not given; remark: listed apart in the source
# K562 = experiment: ED50 (po) in leukemic mice (K562); conditions: po, mice
smiles,measurement,setting,value
Cc1ccc(NC(=O)c2cccc(S(=O)(=O)C(F)(F)F)c2)cc1Nc1nccc(-c2cccnc2)n1 [AN024],Blast cell count in blood smears,[1],significant decrease in blast cell count
same,Blast cell count in blood smears,[2],significant decrease in blast cell count
same,Blast cell count in blood smears,[3],significant decrease in blast cell count
same,±Change in invasion after radiation,ZR71 breast cancer cells [4],−3%
same,±Change in invasion after radiation,[5],+4%
same,±Change in invasion after radiation,4910 glioma cells [6],−17%
same,±Change in invasion after radiation,5310 glioma cells [7],+5%
same,±Change in invasion after radiation,U87 glioma cells [8],−24%
same,Inhibition of angiogenesis,ZR71 breast cancer cells [9],complete inhibition of angiogenesis
same,Inhibition of angiogenesis,[10]; after radiation,only a slight inhibition
same,Inhibition of angiogenesis,[10]; control condition (without radiation),only a slight inhibition
same,Inhibition of angiogenesis,4910 glioma cells [11]; after radiation,significant inhibition of angiogenesis
same,Inhibition of angiogenesis,4910 glioma cells [11]; without radiation,significant inhibition of angiogenesis
same,Inhibition of angiogenesis,5310 glioma cells [12]; after radiation,angiogenesis further inhibited
same,Inhibition of angiogenesis,5310 glioma cells [12]; control conditions (without radiation),inhibition of angiogenesis
same,Inhibition of angiogenesis,U87 glioma cells [13]; after radiation,increase in inhibition
same,Inhibition of angiogenesis,U87 glioma cells [13]; without radiation,significant retardation in angiogenesis
same,ERK levels (Western blot),"[14]; U87, after radiation",decrease was enhanced
same,ERK levels (Western blot),"[14]; U87, without radiation",slight decrease in ERK levels
same,AKT levels (Western blot),"[15]; 4910, after radiation",decrease in AKT levels was enhanced
same,AKT levels (Western blot),"[15]; 4910, without radiation",decrease in AKT levels
same,AKT levels (Western blot),"[16]; ZR71, after radiation",decrease in AKT expression
same,AKT levels (Western blot),"[16]; ZR71, unirradiated",did not show any significant change
same,PI3k levels (Western blot),"[16]; ZR71, with radiation",decrease in PI3k levels
same,"Blast cell count from blood smears, effectiveness after withdrawal of drug treatment",[17]; drug treatment withdrawn on day 42,showed effectiveness after withdrawal of drug treatment
same,Animals showing no signs of leukemia / complete absence of leukemic symptoms,"[17]; of 10 animals, drug withdrawn day 42, AN024 on day 55",8 animals
same,Mortality,"[17]; treatment day 15 to day 42, then withdrawn, 10 animals",mortality on day 38
same,Animals cured / no observable intracranial tumor,"[18]; of 10 animals, with radiation (5 Gy/week), day 40 post implantation",7 animals
same,Animals cured / complete absence of intracranial tumours,"[18]; of 10 animals, without radiation, day 40 post implantation",3 animals
same,Intracranial tumour size and appearance,[18]; with radiation (5 Gy/week),well defined surgically respectable tumours
same,Intracranial tumour size and appearance,[18]; without radiation,tumours were well defined and not showing diffuse edges
same,LD50 (po) Mice,,1440 mg/kg
same,MTD Mice,[19],500 mg/kg
same,ED50 (po) Mice,K562,10 mg/kg
